From patent US12139480B2, “5-thiazolecarboxamide kinase inhibitor and uses thereof” (iOmx Therapeutics AG, priority 2018, dated 2024)

Key:
[1] = test system: M579-A2-luc tumour cells; assay: sensitisation of tumour cells to in-vitro TNF attack, luciferase-based killing assay; type: cell-based; settings: TNF 10 ng/mL, compound between about 10 and 100 nM
Description: PANC1-luc is an HLA-A2.1+ luciferase-expressing pancreatic adenocarcinoma (PDAC) tumour cell line, and M579-A2-luc is an HLA-A2.1+ luciferase-expressing melanoma tumour cell line.
After lysis, luciferase assay buffer is added and immediately the luciferase intensity was measured by using the TECAN-Spark microplate reader.

[2] = molecular target: T1, ABL1 wt (Homo sapiens, UniProt P00519); assay: radiometric protein kinase assay (33PanQinase), IC50; type: biochemical
T1 construct: includes the ABL1 wild-type protein (amino acids P118-S525) and mutants forms; purchased ProQinase
T1 sequence (P00519 118-535 limits assumed): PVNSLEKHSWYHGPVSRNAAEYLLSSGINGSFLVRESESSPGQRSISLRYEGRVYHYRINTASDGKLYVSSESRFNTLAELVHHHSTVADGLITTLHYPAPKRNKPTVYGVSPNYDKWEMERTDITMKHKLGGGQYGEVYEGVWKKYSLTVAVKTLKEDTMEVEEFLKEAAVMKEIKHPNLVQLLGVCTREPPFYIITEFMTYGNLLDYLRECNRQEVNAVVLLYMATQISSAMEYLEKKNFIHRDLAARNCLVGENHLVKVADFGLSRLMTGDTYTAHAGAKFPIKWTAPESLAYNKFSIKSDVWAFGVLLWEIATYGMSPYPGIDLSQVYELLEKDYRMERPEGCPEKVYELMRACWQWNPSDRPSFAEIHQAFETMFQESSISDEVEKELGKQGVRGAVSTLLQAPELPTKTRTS
Description: (§1) Incorporation of 33Pi was determined with a microplate scintillation counter (Microbeta, Wallac).

[3] = molecular target: SRC (GST-HIS-tag) (Homo sapiens, UniProt P12931); assay: as above; type: biochemical
SRC (GST-HIS-tag), sequence (P12931 whole entry): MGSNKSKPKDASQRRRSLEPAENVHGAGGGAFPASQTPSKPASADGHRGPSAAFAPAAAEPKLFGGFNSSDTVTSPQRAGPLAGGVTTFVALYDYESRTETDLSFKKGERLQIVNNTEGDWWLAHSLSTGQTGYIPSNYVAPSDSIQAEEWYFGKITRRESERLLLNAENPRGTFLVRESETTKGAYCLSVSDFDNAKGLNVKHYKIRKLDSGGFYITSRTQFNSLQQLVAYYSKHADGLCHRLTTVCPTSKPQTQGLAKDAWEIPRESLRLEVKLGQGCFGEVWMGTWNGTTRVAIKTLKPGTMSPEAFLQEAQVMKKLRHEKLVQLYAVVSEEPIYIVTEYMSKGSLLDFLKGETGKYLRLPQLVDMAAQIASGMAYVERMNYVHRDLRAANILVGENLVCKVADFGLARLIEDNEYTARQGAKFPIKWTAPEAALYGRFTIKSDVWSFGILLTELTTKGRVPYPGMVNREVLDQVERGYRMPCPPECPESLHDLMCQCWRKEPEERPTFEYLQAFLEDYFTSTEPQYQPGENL
Description: as §1

[4] = molecular target: T2, SIK3 (Homo sapiens, UniProt Q9Y2K2); assay: as above; type: biochemical
T2 construct: purchased ProQinase
T2 sequence (Q9Y2K2 whole entry): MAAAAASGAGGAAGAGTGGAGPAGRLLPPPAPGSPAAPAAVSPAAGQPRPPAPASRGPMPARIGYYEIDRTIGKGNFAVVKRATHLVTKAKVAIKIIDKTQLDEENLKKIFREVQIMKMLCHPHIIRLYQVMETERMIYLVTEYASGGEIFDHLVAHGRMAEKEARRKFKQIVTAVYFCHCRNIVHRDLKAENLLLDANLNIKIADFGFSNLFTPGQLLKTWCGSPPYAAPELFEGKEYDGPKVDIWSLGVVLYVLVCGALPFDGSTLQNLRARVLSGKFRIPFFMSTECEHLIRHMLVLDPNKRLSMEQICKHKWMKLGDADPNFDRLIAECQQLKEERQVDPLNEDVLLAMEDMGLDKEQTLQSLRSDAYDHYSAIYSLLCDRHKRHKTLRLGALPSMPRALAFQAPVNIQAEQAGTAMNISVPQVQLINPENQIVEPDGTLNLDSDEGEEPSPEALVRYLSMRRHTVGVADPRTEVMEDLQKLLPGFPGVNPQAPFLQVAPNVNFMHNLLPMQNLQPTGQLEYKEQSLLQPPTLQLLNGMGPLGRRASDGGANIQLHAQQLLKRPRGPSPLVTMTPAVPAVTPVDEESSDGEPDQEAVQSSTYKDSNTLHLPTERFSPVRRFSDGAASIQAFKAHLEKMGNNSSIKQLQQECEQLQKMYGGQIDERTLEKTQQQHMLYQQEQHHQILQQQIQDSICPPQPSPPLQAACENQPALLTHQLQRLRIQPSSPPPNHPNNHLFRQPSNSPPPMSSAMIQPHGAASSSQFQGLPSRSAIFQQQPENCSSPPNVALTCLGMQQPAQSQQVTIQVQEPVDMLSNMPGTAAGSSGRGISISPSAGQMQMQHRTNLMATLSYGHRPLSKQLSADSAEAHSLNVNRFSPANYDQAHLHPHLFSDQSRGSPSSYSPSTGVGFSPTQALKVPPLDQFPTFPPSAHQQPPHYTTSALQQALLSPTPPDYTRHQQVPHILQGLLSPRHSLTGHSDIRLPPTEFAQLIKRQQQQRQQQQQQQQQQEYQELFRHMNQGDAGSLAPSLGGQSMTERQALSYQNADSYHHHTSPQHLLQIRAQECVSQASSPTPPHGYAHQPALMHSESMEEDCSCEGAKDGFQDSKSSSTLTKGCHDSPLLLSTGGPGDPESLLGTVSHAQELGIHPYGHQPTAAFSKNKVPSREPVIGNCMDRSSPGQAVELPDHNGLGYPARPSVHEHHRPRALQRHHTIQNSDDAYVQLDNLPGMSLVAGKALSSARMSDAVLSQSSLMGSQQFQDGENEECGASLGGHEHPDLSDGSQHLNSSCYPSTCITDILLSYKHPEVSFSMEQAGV
Description: as §1

[5] = molecular target: T3, SIK2 (Homo sapiens, UniProt Q9H0K1); assay: as above; type: biochemical
T3 construct: purchased ProQinase
T3 sequence (Q9H0K1 whole entry): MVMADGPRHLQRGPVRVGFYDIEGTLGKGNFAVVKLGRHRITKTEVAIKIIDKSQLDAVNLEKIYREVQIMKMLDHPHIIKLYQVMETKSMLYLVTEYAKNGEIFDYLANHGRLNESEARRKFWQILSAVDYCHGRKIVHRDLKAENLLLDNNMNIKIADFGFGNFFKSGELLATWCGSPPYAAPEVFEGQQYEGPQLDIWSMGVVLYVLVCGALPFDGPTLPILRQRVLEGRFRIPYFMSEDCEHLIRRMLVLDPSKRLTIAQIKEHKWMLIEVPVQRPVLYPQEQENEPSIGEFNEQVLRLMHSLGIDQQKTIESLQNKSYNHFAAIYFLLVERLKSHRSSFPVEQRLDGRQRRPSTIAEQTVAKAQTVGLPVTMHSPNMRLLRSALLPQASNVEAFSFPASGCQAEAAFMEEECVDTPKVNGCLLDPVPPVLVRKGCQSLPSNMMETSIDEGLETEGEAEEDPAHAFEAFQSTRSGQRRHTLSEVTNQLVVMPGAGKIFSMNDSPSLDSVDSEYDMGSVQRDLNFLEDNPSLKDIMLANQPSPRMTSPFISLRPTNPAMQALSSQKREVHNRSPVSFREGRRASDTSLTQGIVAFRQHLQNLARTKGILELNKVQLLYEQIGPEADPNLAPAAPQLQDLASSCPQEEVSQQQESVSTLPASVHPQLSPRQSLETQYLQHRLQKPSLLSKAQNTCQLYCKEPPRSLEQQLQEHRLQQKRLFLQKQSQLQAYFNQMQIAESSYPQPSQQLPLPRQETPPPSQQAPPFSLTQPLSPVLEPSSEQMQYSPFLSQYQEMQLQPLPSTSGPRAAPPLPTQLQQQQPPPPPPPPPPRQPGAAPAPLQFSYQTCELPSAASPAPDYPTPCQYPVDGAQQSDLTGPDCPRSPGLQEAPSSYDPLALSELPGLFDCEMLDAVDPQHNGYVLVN
Description: as §1

[6] = molecular target: T4, SIK1 (Homo sapiens, UniProt P57059); assay: as above; type: biochemical
T4 construct: purchased ProQinase
T4 sequence (P57059 whole entry): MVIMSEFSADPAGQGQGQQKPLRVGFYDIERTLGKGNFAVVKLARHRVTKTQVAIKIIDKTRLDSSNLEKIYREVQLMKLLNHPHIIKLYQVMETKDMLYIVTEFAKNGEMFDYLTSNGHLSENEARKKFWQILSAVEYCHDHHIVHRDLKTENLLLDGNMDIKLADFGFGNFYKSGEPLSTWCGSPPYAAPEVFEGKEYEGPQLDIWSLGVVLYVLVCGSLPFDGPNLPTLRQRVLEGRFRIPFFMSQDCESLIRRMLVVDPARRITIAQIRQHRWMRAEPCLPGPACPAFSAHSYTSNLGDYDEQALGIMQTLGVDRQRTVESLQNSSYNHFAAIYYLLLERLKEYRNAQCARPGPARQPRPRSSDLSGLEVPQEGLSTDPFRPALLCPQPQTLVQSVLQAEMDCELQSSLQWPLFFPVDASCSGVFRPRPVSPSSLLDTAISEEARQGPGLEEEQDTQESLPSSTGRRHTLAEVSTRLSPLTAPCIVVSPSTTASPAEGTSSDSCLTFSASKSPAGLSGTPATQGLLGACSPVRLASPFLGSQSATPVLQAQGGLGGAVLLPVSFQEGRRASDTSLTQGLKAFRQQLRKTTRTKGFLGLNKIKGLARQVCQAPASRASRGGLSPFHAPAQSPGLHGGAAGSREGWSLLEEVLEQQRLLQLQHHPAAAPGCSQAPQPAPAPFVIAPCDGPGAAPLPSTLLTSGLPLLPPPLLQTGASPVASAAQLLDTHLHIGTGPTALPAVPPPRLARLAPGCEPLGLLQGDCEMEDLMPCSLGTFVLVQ
Description: as §1

[7] = humans; prescribing information; cited from earlier work
[8] = test system: K562 CML cells; settings: similar study; dasatinib 10 and 30 mg/kg/day; imatinib 200 mg/kg/day; cited from earlier work
[9] = test system: K562 human CML tumours; settings: dasatinib 8-50 mg/kg PO once a day for 10 days, 5-days-on and 2-days off; imatinib high doses; cited from earlier work

| inhibitory activity [2] | inhibitory activity [3] | inhibitory activity [4] | inhibitory activity [5] | inhibitory activity [6] | Compound | cytotoxicity in the presence of TNF compared to inhibitor alone [1] | terminal / elimination half-life [7] | survival / intracranial tumour growth [8] | tumour response [9] |
| --- | --- | --- | --- | --- | --- | --- | --- | --- | --- |
| potent inhibitor | potent inhibitor | weak inhibitor | strong inhibitor | strong inhibitor | COc1c(F)cccc1NC(=O)c1cnc(Nc2cc(N3CCN(CCO)CC3)nc(C)n2)s1 [Compound B4, N-(3-fluoro-2-methoxyphenyl)-2-((6-(4-(2-hydroxyethyl)piperazin-1-yl)-2-methylpyrimidin-4-yl)amino)thiazole-5-carboxamide] | fails to exhibit cytotoxicity | – | – | – |
| – | – | – | – | – | Cc1cn(-c2cc(NC(=O)c3ccc(C)c(Nc4nccc(-c5cccnc5)n4)c3)cc(C(F)(F)F)c2)cn1 [nilotinib] | – | approximately 17 hours | – | – |
| – | – | – | – | – | Cc1ccc(NC(=O)c2ccc(CN3CCN(C)CC3)cc2)cc1Nc1nccc(-c2cccnc2)n1 [imatinib] | – | – | failed to inhibit intracranial tumour growth | failed to produce a comparative response |
| potent ABL1 & SRC inhibitor | potent ABL1 & SRC inhibitor | low inhibitory activity | low inhibitory activity | low inhibitory activity | CCOc1cccc(Cl)c1NC(=O)c1cnc(Nc2cc(N3CCN(CCO)CC3)nc(C)n2)s1 [Compound B8, N-(2-chloro-6-ethoxyphenyl)-2-((6-(4-(2-hydroxyethyl)piperazin-1-yl)-2-methylpyrimidin-4-yl)amino)thiazole-5-carboxamide] | fails to exhibit cytotoxicity | – | – | – |

| Compound | inhibitory activity [2] | inhibitory activity [3] | inhibitory activity [4] | inhibitory activity [5] | inhibitory activity [6] | cytotoxicity in the presence of TNF compared to inhibitor alone [1] | terminal / elimination half-life [7] | survival / intracranial tumour growth [8] | tumour response [9] |
| --- | --- | --- | --- | --- | --- | --- | --- | --- | --- |
| Cc1nc(Nc2ncc(C(=O)Nc3c(Cl)cccc3Br)s2)cc(N2CCN(CCO)CC2)n1 [Compound B1, N-(2-bromo-6-chlorophenyl)-2-((6-(4-(2-hydroxyethyl)piperazin-1-yl)-2-methylpyrimidin-4-yl)amino)thiazole-5-carboxamide] | pan-SIK and ABL1 & SRC inhibitor | pan-SIK and ABL1 & SRC inhibitor | – | – | – | increased cytotoxicity | – | – | – |
